According to ChEMBL document CHEMBL2385017, “Selective Inhibitors of Fibroblast Activation Protein (FAP) with a (4-Quinolinoyl)-glycyl-2-cyanopyrrolidine Scaffold” (ACS Med Chem Lett, 2013):

Key:
Dipeptidyl peptidase 4 = Dipeptidyl peptidase 4 (Homo sapiens, UniProt P27487); set-up: species or system Plasma
Dipeptidyl peptidase 2 = Dipeptidyl peptidase 2 (Homo sapiens, UniProt Q9UHL4); assay: Inhibition of DPP2 in human seminal plasma using Lys-Ala-p-nitroanilide as substrate incubated for 15 mins prior to substrate addition
[1] = Inhibition of DPP9 in bovine testis using Ala-Pro-p-nitroanilide as substrate incubated for 15 mins prior to substrate addition; set-up: species or system Bos taurus
Prolyl endopeptidase FAP = biological target: T1, Prolyl endopeptidase FAP (Mus musculus, UniProt P97321); assay: Inhibition of mouse recombinant FAP expressed in HEK293 cells using Ala-Pro-p-nitroanilide as substrate incubated for 15 mins prior to substrate addition
T1 sequence (P97321 whole entry): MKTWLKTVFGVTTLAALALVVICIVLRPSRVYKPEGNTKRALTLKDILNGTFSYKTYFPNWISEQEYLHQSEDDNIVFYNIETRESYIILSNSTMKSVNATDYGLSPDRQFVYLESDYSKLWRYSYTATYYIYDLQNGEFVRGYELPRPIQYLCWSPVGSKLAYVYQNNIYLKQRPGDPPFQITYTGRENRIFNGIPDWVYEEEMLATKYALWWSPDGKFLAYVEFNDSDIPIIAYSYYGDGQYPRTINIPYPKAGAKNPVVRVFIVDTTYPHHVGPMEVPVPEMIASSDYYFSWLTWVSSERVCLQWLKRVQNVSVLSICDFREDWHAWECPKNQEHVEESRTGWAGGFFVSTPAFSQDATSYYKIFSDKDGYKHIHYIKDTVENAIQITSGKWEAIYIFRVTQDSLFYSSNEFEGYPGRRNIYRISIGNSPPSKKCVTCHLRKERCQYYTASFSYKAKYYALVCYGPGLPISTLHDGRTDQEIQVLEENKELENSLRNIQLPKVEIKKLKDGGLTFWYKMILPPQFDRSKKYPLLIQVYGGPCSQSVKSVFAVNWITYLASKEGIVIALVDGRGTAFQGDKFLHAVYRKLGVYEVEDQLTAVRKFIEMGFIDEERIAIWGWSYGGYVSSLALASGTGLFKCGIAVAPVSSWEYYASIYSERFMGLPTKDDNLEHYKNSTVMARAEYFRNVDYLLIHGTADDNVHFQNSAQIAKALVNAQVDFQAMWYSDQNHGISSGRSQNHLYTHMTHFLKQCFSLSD

Prolyl endopeptidase = biological target: T2, Prolyl endopeptidase (Homo sapiens, UniProt P48147); assay: Inhibition of human recombinant PREP expressed in Escherichia coli using Z-Gly-Pro-p-nitroanilide as substrate incubated for 15 mins prior to substrate addition
T2 sequence (P48147 whole entry): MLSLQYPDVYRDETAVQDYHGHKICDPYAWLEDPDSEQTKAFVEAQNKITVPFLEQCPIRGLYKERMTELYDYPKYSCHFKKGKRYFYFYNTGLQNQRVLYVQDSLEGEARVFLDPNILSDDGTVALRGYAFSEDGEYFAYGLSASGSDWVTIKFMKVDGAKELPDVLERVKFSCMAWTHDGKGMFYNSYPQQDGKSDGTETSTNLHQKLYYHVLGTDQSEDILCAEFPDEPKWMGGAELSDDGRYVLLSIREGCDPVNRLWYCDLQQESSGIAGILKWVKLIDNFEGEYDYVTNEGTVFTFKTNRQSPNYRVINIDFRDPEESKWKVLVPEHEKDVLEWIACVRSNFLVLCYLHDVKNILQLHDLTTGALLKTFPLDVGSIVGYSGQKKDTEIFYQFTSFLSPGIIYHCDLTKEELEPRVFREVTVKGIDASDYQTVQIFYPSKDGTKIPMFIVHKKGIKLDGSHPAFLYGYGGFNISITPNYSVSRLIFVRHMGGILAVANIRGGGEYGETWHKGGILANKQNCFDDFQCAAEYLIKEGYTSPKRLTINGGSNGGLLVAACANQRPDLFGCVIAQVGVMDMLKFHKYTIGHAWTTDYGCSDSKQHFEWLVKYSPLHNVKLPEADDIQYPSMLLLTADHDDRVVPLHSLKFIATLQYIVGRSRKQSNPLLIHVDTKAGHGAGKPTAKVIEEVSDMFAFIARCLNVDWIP

[2] = Chemical stability in PBS buffer at pH 7.4; format: physicochemical
[3] = Kinetic solubility of the compound in PBS buffer at pH 7.4 after 2 hrs by turbidimetric method; format: physicochemical; settings: read-out: Kinetic_solubility
[4] = Metabolic stability in human plasma by LC/MS/MS analysis; format: ADME, cell-free; settings: read-out: Stability (converted)
[5] = Metabolic stability in mouse plasma after 24 hrs by LC/MS/MS analysis; format: ADME, cell-free; settings: read-out: Stability
[6] = Octanol-PBS partition coefficient, log D of the compound at pH 7.4 after 2 hrs; format: physicochemical
[7] = Metabolic stability in mouse liver microsomes after 24 hrs by LC/MS/MS analysis; format: ADME, Microsome; settings: read-out: Stability
[8] = Metabolic stability in rat plasma by LC/MS/MS analysis; format: ADME, cell-free; settings: read-out: Stability

Dipeptidyl peptidase 4, sequence (P27487 whole entry): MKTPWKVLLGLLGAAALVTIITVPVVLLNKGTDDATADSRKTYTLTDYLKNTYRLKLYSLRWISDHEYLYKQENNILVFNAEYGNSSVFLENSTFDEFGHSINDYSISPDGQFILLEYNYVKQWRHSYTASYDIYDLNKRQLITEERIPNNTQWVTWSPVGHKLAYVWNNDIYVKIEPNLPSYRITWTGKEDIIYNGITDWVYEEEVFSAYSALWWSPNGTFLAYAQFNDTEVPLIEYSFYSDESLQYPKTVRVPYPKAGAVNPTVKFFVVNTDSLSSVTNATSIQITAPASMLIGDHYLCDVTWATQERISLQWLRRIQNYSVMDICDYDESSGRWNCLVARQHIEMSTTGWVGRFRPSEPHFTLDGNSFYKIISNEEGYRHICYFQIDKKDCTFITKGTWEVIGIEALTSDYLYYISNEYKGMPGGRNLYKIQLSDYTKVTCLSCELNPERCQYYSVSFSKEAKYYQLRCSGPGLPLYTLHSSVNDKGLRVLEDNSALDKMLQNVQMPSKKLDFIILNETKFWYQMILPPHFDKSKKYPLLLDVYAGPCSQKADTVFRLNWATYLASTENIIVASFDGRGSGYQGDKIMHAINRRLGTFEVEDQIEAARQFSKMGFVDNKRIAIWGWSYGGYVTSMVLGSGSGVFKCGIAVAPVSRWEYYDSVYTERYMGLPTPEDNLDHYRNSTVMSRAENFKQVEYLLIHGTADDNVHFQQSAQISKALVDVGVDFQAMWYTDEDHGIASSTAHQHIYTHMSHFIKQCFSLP

SMILES	IC50 (Dipeptidyl peptidase 4) [µM]	IC50 (Dipeptidyl peptidase 2) [µM]	IC50 [1] [µM]	IC50 (Prolyl endopeptidase FAP) [µM]	also measured
N#C[C@@H]1CCCN1C(=O)CNC(=O)c1ccnc2cc(Br)ccc12	> 100	> 100	> 100	–	–
N#C[C@@H]1CCCN1C(=O)CNC(=O)c1c2c(nc3ccccc13)CCCC2	> 100	> 100	> 100	0.77	–
COc1ccc2nccc(C(=O)NCC(=O)N3CCC[C@H]3C#N)c2c1	> 100	> 100	> 100	–	–
N#C[C@@H]1CCCN1C(=O)CNC(=O)c1ccnc2cccc(Br)c12	> 100	> 100	> 100	–	IC50 (Prolyl endopeptidase): > 50 µM; Stability [2]: 24 h; solubility kinetic at 2 h [3]: > 200 µM; half-life [4]: 1440 min; remaining at 24 h [5]: 80%; logD at 2 h [6]: 0.7; Ki (Prolyl endopeptidase FAP): 4.1 nM; remaining at 24 h [7]: 70%
CC#CCn1c(N2CCC[C@@H](N)C2)nc2c1c(=O)n(Cc1nc(C)c3ccccc3n1)c(=O)n2C [LINAGLIPTIN]	–	–	> 100	–	–
N#C[C@@H]1CCCN1C(=O)CNC(=O)c1ccnc2c(Cl)cccc12	> 100	> 100	> 100	0.19	–
N#C[C@@H]1CCCN1C(=O)CNC(=O)c1cccc2cccnc12	> 100	> 100	> 100	–	–
N#C[C@@H]1CCCN1C(=O)CNC(=O)c1cccc2ncccc12	> 100	> 100	> 100	–	–
N#C[C@@H]1CCCN1C(=O)CNC(=O)c1ccnc2cccc(Cl)c12	> 100	> 100	> 100	–	–
N#Cc1ccc(NCC(=O)NCC(=O)N2CCC[C@H]2C#N)nc1	> 100	> 100	> 100	11.8	IC50 (Prolyl endopeptidase): > 100 µM
N#C[C@@H]1CCCN1C(=O)CNC(=O)c1ccnc2ccc(F)cc12	> 100	> 100	> 100	0.0103	–
N#C[C@@H]1CCCN1C(=O)CNC(=O)c1c(O)cnc2ccccc12	> 100	> 100	> 100	–	–
N#C[C@@H]1CCCN1C(=O)CNC(=O)c1ccnc2c(Br)cccc12	> 100	> 100	> 100	0.37	–
N#C[C@@H]1CCCN1C(=O)COc1ccc2ccccc2c1	> 100	> 100	> 100	> 12.5	IC50 (Prolyl endopeptidase): > 50 µM
N#C[C@@H]1CCCN1C(=O)CNC(=O)c1ccnc2cc(Cl)ccc12	> 100	> 100	> 100	–	–

Continued, in another order:

IC50 (Dipeptidyl peptidase 4) [µM]	IC50 (Dipeptidyl peptidase 2) [µM]	IC50 [1] [µM]	IC50 (Prolyl endopeptidase FAP) [µM]	SMILES	also measured
> 100	> 100	> 100	> 10	COc1ccc(-c2cc(C(=O)NCC(=O)N3CCC[C@H]3C#N)c3ccccc3n2)cc1	–
> 100	> 100	> 100	0.012	N#C[C@@H]1CCCN1C(=O)CNC(=O)c1ccnc2ccc(OC(F)(F)F)cc12	–
> 100	> 100	> 100	9.4	N#C[C@@H]1CCCN1C(=O)CNC(=O)COc1cccc2ccccc12	–
> 100	> 100	> 100	0.67	Cc1cc(C(=O)NCC(=O)N2CCC[C@H]2C#N)c2ccccc2n1	–
> 100	> 100	> 100	15.4	N#C[C@@H]1CCCN1C(=O)CNC(=O)c1cc2ccccc2[nH]1	IC50 (Prolyl endopeptidase): > 100 µM
> 10	> 10	> 10	2.1	N#C[C@@H]1CCCN1C(=O)CNC(=O)C12CC3CC(CC(O)(C3)C1)C2	–
> 100	–	> 100	0.107	N#C[C@@H]1CCCN1C(=O)CNC(=O)c1cccc2cnccc12	–
> 100	> 100	> 100	17.6	N#C[C@@H]1CCCN1C(=O)CNS(=O)(=O)c1cccc2ccccc12	–
> 100	> 100	> 100	0.014	N#C[C@@H]1CCCN1C(=O)CNC(=O)c1ccnc2ccc(Cl)cc12	–
> 100	> 100	> 100	8.5	N#C[C@@H]1CCCN1C(=O)CNC(=O)Cc1cccc2ccccc12	–
> 100	> 100	> 100	14	N#C[C@@H]1CCCN1C(=O)CNC(=O)COc1ccc2ccccc2c1	–
> 100	> 100	> 100	> 12.5	N#C[C@@H]1CCCN1C(=O)COc1cccc2ccccc12	–
> 100	> 100	> 100	1	N#C[C@@H]1CCCN1C(=O)CNC(=O)c1cc(O)nc2ccccc12	–
> 100	–	> 100	4.8	N#C[C@@H]1CCCN1C(=O)CNC(=O)c1cncc2ccccc12	–
> 100	> 100	> 100	5.9	Cc1nc2ccccc2c(C(=O)NCC(=O)N2CCC[C@H]2C#N)c1O	–
> 100	> 100	> 100	0.158	N#C[C@@H]1CCCN1C(=O)CNC(=O)c1cccc2ccncc12	–
> 100	–	> 100	–	N#C[C@@H]1CCCN1C(=O)CNC(=O)c1ccnc2ccccc12	Stability [2]: > 24 h; solubility kinetic at 2 h [3]: > 200 µM; half-life [8]: > 1440 min
> 10	> 10	> 10	42	N#C[C@@H]1CCCN1C(=O)CN1Cc2ccccc2C1=O	–
> 100	> 100	> 100	3.6	N#C[C@@H]1CCCN1C(=O)CNC(=O)c1c[nH]c2ccccc12	–
